Test results: US20030165570A1, “Pharmaceutical compositions containing micronized bicyclic drugs” (SmithKline Beecham p.l.c., priority 1997, published 2003)
Converted amounts (≈) assume the structure as drawn.

Assay: Aqueous solubility
Type: physicochemical
From the text: The compounds used in this invention have a very low solubility in water.

## CC(=O)c1ccc2c(c1)[C@H](NC(=O)c1ccc(F)cc1)[C@@H](O)C(C)(C)O2 (relative stereo) [Compound 1, trans-6-acetyl-4S-(4-fluorobenzoylamino)-3,4-dihydro-2,2-dimethyl-2H-1-benzopyran-3R-ol]
  USP solubility classification: virtually insoluble
  aqueous solubility: 8 µg/mL (≈ 22.4 µM)
